Values quoted from earlier work as cited in patent publication US20040259850A1, “Method for treating or preventing symptoms of hormonal variation including hot flashes” (priority 2001, published 2004).

Assays:
hot flashes in patients = conditions: cited from earlier work; for amelioration of hot flashes, general statement: comparison of clonidine with estrogen
[1] = as stated in the background; cited from earlier work

Molecule: estrogen
- amelioration of hot flashes, general statement (hot flashes in patients): can virtually eliminate them

Molecule: Clc1cccc(Cl)c1N=C1NCCN1 [clonidine]
- amelioration of hot flashes, general statement (hot flashes in patients): only mildly ameliorates hot flashes
- effect on frequency and severity of hot flashes (hot flashes in patients; transdermal, tamoxifen-treated women (Goldberg et al. 1994)): only a moderate effect

Molecule: CC(=O)O[C@]1(C(C)=O)CC[C@H]2[C@@H]3C=C(C)C4=CC(=O)CC[C@]4(C)[C@H]3CC[C@@]21C [megestrol acetate]
- side effects [1]: chronic adrenal insufficiency can be a side effect
- effect on frequency of hot flashes (hot flashes in patients; low dose oral, men and women, short term study (Loprinzi et al. 1994)): reduce the frequency of hot flashes

Molecule: COc1ccc(C(CN(C)C)C2(O)CCCCC2)cc1 (centres unmarked) [venlafaxine]
- side effects [1]: mouth dryness, decreased appetite, nausea and constipation
- effect on hot flashes (hot flashes in patients; early studies, survivors of breast cancer (Loprinzi et al. 2000)): effective non-hormonal method to diminish hot flashes

Molecule: CN1CCN2c3ncccc3Cc3ccccc3C2C1 (centres unmarked) [Mirtazapine]
- effect on hot flushes and perspiration bouts (hot flashes in patients; four case reports (Waldinger et al. 2000)): appears to have an ameliorating effect
